# Publication PMC10952582, “Pregnenolone sulfate analogues differentially modulate GABAA receptor closed/desensitised states” (British Journal of Pharmacology, 2023)
# Key:
# α1β3γ2L GABAAR [1] = target: T1, α1β3γ2L GABAAR (Mus musculus, UniProt P22723+P62812+P63080); experiment: Whole-cell voltage-clamp electrophysiology, wild-type α1β3γ2L GABAARs expressed in HEK cells; format: cell-based, murine
# T1 construct: expressed in transfected cells; host or cells: HEK 293 cells (ATCC CRL-1573)
# Protocol: (§1) HEK 293 cells (ATCC Cat# CRL‐1573, RRID:CVCL_0045) were maintained and transfected under standard conditions. In brief, cells were grown in monolayers in Dulbecco's modified Eagle's medium supplemented with 10% v/v fetal calf serum, 100 U·ml^−1 of penicillin‐G and 100 μg·ml^−1 of streptomycin and incubated at 37°C in humidified 95% air/5% CO2.
# (§2) Before transfection, HEK cells were plated onto 22 mm of glass coverslips (VWR) coated in poly‐L‐lysine (Sigma). Cells were transfected with α1 (wild‐type [wt] or mutant [mut]), β3 (wt), γ2L (wt or mut) and enhanced green fluorescent protein (eGFP) in an equimolar ratio (1:1:1:1), using a calcium‐phosphate precipitation protocol. The transfection solution was prepared from 4 μg of cDNA per coverslip, 20 μl of 340 mM of CaCl2 and 24 μl of 2× HEPES‐buffered saline (HBS) (50 mM of HEPES, 280 mM of NaCl and 2.8 mM of Na2HPO4). Cells were selected for electrophysiology after 16–30 h based on their morphology and moderate GFP fluorescence.
# (§3) Coverslips with transfected HEK cells were transferred into a recording chamber on a Nikon Eclipse FN1 microscope with a 470‐nm LED for GFP fluorescence. Cells were continuously perfused with Krebs solution containing (mM) 140 NaCl, 4.7 KCl, 1.2 MgCl2, 2.52 CaCl2, 11 glucose and 5 HEPES (pH 7.4). Patch pipettes (thin‐walled filamented borosilicate glass capillaries; TW150F‐4; WPI, USA; 3–4 MΩ) were filled with an intracellular solution containing (mM) 140 CsCl, 2 NaCl, 2 MgCl2, 5 EGTA, 10 HEPES, 0.5 CaCl2, 2 Na‐ATP and 0.5 Na‐GTP (pH 7.2). Drugs were applied to cells using a Y‐tube delivery system (Mortensen & Smart, [2007]), with the PS analogues pre‐applied 10–12 s before co‐application with GABA.
# (§4) HEK cells were voltage clamped at −30 mV using an Axopatch 200B amplifier (Molecular Devices, USA), and whole‐cell currents were filtered at 5 kHz (−36 dB), digitised at 50 kHz via a Digidata 1322A (Molecular Devices) and recorded to a Dell Optiplex 990 using Clampex 10.2 (Molecular Devices). Series resistance was compensated at 60%–70%, and only data with <20% deviation in series resistance would be included in subsequent analyses.
# (§5) Weighted time constants for the decay phase (τw) were calculated by fitting a biexponential curve to the current decay waveform and applying the following equation: τw=A1.τ1+A2.τ2/A1+A2, where τ1 and τ2 represent time constants for the two exponential components of the decay phase and A1 and A2 are their relative area contributions.
# (§6) Current responses from voltage‐clamp experiments were measured, and decays fitted using ClampFit 10.2 (Molecular Devices) to determine the respective time constants. In Origin, data were plotted as concentration–response curves, and curves fitted using the following inhibition equation: I/Imax=1−B^n/IC50^n+B^n, where I is the current response, B is the concentration of the PS analogue, n is the slope coefficient and IC50 is the analogue concentration producing 50% inhibition of GABA current (inhibitory potency). Potency values are presented as pIC50 with SEM values. The mean was transformed into a molar concentration by pIC50 = −log IC50. Other data are represented as the mean ± SEM.
# α1β3γ2L GABAAR [2] = target: T2, α1β3γ2L GABAAR (Mus musculus, UniProt P62812); experiment: as above; format: cell-based, murine; conditions: for mean (weighted) decay time (τw) of GABA current: 1 nM PS analogue, 30 μM GABA
# T2 construct: expressed in transfected cells; host or cells: HEK 293 cells (ATCC CRL-1573)
# T2 sequence (P62812 28-455): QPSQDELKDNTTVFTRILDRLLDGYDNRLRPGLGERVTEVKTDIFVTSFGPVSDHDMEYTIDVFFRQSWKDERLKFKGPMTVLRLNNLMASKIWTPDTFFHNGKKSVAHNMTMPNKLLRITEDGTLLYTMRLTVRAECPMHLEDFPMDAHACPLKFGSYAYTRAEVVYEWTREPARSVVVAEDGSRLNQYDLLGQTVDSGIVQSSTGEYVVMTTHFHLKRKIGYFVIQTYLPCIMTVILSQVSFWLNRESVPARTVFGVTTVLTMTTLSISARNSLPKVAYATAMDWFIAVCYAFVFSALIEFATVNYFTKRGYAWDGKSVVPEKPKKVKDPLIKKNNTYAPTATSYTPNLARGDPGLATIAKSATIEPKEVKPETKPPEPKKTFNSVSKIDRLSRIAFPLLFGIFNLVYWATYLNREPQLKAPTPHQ
# T2 sequence (P63080 26-473 partner): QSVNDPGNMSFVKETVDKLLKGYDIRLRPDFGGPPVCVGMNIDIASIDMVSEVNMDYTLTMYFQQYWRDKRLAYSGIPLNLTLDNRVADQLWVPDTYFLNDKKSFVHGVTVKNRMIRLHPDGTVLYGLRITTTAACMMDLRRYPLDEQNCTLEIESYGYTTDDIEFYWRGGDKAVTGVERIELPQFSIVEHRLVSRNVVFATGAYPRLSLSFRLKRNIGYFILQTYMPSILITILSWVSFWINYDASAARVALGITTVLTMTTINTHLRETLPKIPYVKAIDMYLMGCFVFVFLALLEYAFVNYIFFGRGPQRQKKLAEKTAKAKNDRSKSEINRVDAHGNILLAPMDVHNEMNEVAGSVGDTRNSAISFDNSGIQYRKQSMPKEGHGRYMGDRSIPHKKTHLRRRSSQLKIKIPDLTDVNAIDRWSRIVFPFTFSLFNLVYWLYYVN
# T2 sequence (P22723 39-474 partner): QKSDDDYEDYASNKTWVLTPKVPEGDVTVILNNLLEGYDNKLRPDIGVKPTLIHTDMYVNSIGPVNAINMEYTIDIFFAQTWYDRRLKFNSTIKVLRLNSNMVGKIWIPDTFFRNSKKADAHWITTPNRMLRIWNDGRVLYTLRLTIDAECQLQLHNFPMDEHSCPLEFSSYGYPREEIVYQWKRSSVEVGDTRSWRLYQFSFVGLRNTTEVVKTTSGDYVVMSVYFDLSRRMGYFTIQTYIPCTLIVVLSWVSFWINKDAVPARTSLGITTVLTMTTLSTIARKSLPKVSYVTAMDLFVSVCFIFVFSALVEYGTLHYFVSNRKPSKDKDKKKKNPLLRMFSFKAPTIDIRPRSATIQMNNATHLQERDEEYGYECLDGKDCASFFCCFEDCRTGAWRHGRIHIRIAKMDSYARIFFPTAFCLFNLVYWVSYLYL
# Protocol: as §1, §2, §3, §4, §5, §6
# α1F295Aβ3γ2L GABAAR = target: T3, α1F295Aβ3γ2L GABAAR (Mus musculus, UniProt P22723+P62812+P63080, F322A); experiment: Whole-cell voltage-clamp electrophysiology, mutant α1F295Aβ3γ2L in HEK cells; format: cell-based, murine
# T3 construct: expressed in transfected cells; host or cells: HEK 293 cells (ATCC CRL-1573)
# T3 sequence (P62812 28-455 F322A): as the sequence (P62812 28-455) above, with F295A counted along it
# T3 sequence (P63080 26-473 partner): as the sequence (P63080 26-473 partner) above
# T3 sequence (P22723 39-474 partner): as the sequence (P22723 39-474 partner) above
# Protocol: as §1, §2, §3, §4, §5, §6
# α1F399Aβ3γ2L GABAAR = target: T4, α1F399Aβ3γ2L GABAAR (Mus musculus, UniProt P22723+P62812+P63080, F426A); experiment: Whole-cell voltage-clamp electrophysiology, mutant α1F399Aβ3γ2L in HEK cells; format: cell-based, murine
# T4 construct: expressed in transfected cells; host or cells: HEK 293 cells (ATCC CRL-1573)
# T4 sequence (P62812 28-455 F426A): as the sequence (P62812 28-455) above, with F399A counted along it
# T4 sequence (P63080 26-473 partner): as the sequence (P63080 26-473 partner) above
# T4 sequence (P22723 39-474 partner): as the sequence (P22723 39-474 partner) above
# Protocol: as §1, §2, §3, §4, §5
# Current responses from voltage‐clamp experiments were measured, and decays fitted using ClampFit 10.2 (Molecular Devices) to determine the respective time constants. […]
# [3] = target: T5, α1F295A, F399Aβ3γ2L GABAAR (Mus musculus, UniProt P22723+P62812+P63080, F322A/F426A); experiment: Whole-cell voltage-clamp electrophysiology, mutant α1F295A,F399Aβ3γ2L in HEK cells; format: cell-based, murine
# T5 construct: expressed in transfected cells; host or cells: HEK 293 cells (ATCC CRL-1573)
# T5 sequence (P62812 28-455 F322A/F426A): as the sequence (P62812 28-455) above, with F295A, F399A counted along it
# T5 sequence (P63080 26-473 partner): as the sequence (P63080 26-473 partner) above
# T5 sequence (P22723 39-474 partner): as the sequence (P22723 39-474 partner) above
# Protocol: as §1, §2, §3, §4, §5, §6
# α1V296Lβ3γ2L GABAAR = target: T6, α1V296Lβ3γ2L GABAAR (Mus musculus, UniProt P22723+P62812+P63080, V323L); experiment: Whole-cell voltage-clamp electrophysiology, minimally desensitising mutant α1V296Lβ3γ2L in HEK cells; format: cell-based, murine
# T6 construct: expressed in transfected cells; host or cells: HEK 293 cells (ATCC CRL-1573)
# T6 sequence (P62812 28-455 V323L): as the sequence (P62812 28-455) above, with V296L counted along it
# T6 sequence (P63080 26-473 partner): as the sequence (P63080 26-473 partner) above
# T6 sequence (P22723 39-474 partner): as the sequence (P22723 39-474 partner) above
# Protocol: as §1, §2, §3, §4, §5, §6
# α1β3γ2LV262F GABAAR = target: T7, α1β3γ2LV262F GABAAR (Mus musculus, UniProt P62812); experiment: Whole-cell voltage-clamp electrophysiology, highly desensitising mutant α1β3γ2LV262F in HEK cells; format: cell-based, murine
# T7 construct: expressed in transfected cells; host or cells: HEK 293 cells (ATCC CRL-1573)
# T7 sequence (P62812 28-455): as the sequence (P62812 28-455) above
# T7 sequence (P63080 26-473 partner): as the sequence (P63080 26-473 partner) above
# T7 sequence (P22723 39-474 V300F partner): as the sequence (P22723 39-474 partner) above, with V262F counted along it
# Protocol: as §1, §2, §3, §4, §5, §6
# α1β3γ2L GABAAR [4] = target: T2, α1β3γ2L GABAAR; experiment: Kinetic modelling and waveform fitting of GABA currents (ChanneLab); parameters: species or system murine; conditions: waveform fit
# Protocol: We used ChanneLab (Version 2.2; Synaptosoft) to build relatively simple kinetic models of the GABAAR. To explore the functional behaviour of PS analogues (compounds) 5 and 6, we incorporated concentration‐dependent PS analogue‐bound states into the model. Simulated currents were generated in ChanneLab and explored at different GABA and PS analogue concentrations. These were evaluated against GABA currents generated under experimental conditions, using the waveform fitting function in ChanneLab. Rate constants connecting receptor states were determined initially empirically with reference to previously published values and varied individually to optimise the fit to the data (seed values) prior to using waveform fitting and Runge–Kutta numerical integration (RK5) to eventually simulate the experimental GABA current profiles with 50 iterations. GABA‐activated membrane currents were fitted over their full timecourse of 20 s.
# To investigate, simplified GABAAR models were constructed, incorporating some or all the following receptor states: an unbound closed state (R); GABA‐bound closed ‘composite’ state (RA) that incorporates one or more preactivation states that are not explicitly indicated or a closed (RA) and separate preactivated (RfA) state; a GABA‐bound activated state (RA*); and a desensitised state (RD) accessed via the receptor's activated state. These simple models enable the generation of simulated GABA‐dependent currents, with values for the rate constants determined initially empirically in broad accord with published parameters and manually adjusted to provide seed values before performing waveform fitting with unconstrained rate constants (Figure 8a).
# RA* is the activated receptor open channel before moving to a desensitised state RD.
# [5] = Decay inhibition (pIC50), potency for reducing GABA current weighted decay time constant, 30 μM GABA
# [6] = Peak inhibition (IC50), peak current evoked by 30 μM GABA, analogue pre-applied 10–12 s and co-applied
# [7] = Steady-state inhibition (IC50), GABA current after 20 s of 30 μM GABA (near steady state)
# [8] = Steady-state inhibition (pIC50), GABA current after 20 s of 30 μM GABA (near steady state)
# [9] = Peak inhibition (pIC50), peak current evoked by 30 μM GABA, analogue pre-applied 10–12 s and co-applied
# [10] = Decay inhibition (IC50), GABA current weighted decay time constant
# [11] = Decay inhibition (pIC50), GABA current weighted decay time constant
# [12] = Steady-state inhibition (pIC50), 30 μM GABA, 20 s
# T1 sequence (P62812 28-455): as the sequence (P62812 28-455) above
# T1 sequence (P63080 26-473 partner): as the sequence (P63080 26-473 partner) above
# T1 sequence (P22723 39-474 partner): as the sequence (P22723 39-474 partner) above
smiles,measurement,setting,value
C[C@]12CC[C@H](OS(=O)(=O)O)CC1=CCC1C2CC[C@@]2(C)C1CC[C@@H]2C(=O)Cn1ccnc1 (some centres unmarked) [compound 3],IC50,α1β3γ2L GABAAR [1]; [5],8510 nM
same,IC50,α1β3γ2L GABAAR [1]; [6],743000 nM
same,IC50,α1β3γ2L GABAAR [1]; [7],~1000 nM
same,IC50,α1β3γ2L GABAAR [1]; [8],891 nM
same,mean (weighted) decay time (τw) of GABA current,α1β3γ2L GABAAR [2],3.8 ± 0.8 s
C[C@]12CC[C@H](OS(=O)(=O)O)CC1=CCC1C2CC[C@@]2(C)C1CC[C@@H]2C(=O)Cn1cccn1 (some centres unmarked) [compound 6],IC50,α1β3γ2L GABAAR [1]; [5],1660 nM
same,IC50,α1β3γ2L GABAAR [1]; [9],220000 ± 14600 nM
same,IC50,α1β3γ2L GABAAR [1]; [7],~1000 nM
same,IC50,α1β3γ2L GABAAR [1]; [8],1130 nM
same,mean (weighted) decay time (τw) of GABA current,α1β3γ2L GABAAR [2],3.8 ± 0.2 s
same,"fold difference in current decay potency, compound 6 vs compound 5","α1β3γ2L GABAAR [2]; wild-type α1β3γ2L, decay IC50 of 5 vs 6",70 fold
same,IC50,α1F295Aβ3γ2L GABAAR; [10],1400 nM
same,IC50,α1F295Aβ3γ2L GABAAR; [11],1350 nM
same,IC50,α1F295Aβ3γ2L GABAAR; [12],4510 nM
same,IC50,α1F399Aβ3γ2L GABAAR; [11],1490 nM
same,IC50,α1F399Aβ3γ2L GABAAR; [12],7290 nM
same,IC50,[3]; [11],1230 nM
same,IC50,"[3]; Steady-state inhibition (IC50), 30 μM GABA, 20 s",4200 nM
same,IC50,[3]; [12],4150 nM
same,IC50,α1V296Lβ3γ2L GABAAR; [10],> 100000 nM
same,IC50,"α1V296Lβ3γ2L GABAAR; Steady-state inhibition (IC50), steady-state GABA current",> 100000 nM
same,IC50,α1β3γ2LV262F GABAAR; [11],2880 nM
same,IC50,"α1β3γ2LV262F GABAAR; Steady-state inhibition (pIC50), steady-state GABA current",25100 nM
same,"rate constant k4, Model (c)","α1β3γ2L GABAAR [4]; Model (c): binding to RA (RAP) and RD (RDP), 30 μM GABA",234000 M⁻¹ s⁻¹
same,"rate constant k2, Model (c)","α1β3γ2L GABAAR [4]; Model (c), 30 μM GABA",129000 M⁻¹ s⁻¹
same,"rate constant k‐4, Model (c)","α1β3γ2L GABAAR [4]; Model (c), 30 μM GABA",184 s⁻¹
same,"rate constant k2, Model (d)",α1β3γ2L GABAAR [4]; Model (d): binding to preactivated state RfA (RfAP) and RD,173000 M⁻¹ s⁻¹
same,"rate constant k4, Model (d)",α1β3γ2L GABAAR [4]; Model (d),184000 M⁻¹ s⁻¹
same,"rate constant k‐4, Model (d)",α1β3γ2L GABAAR [4]; Model (d),307 s⁻¹
CC12CCC(OS(=O)(=O)O)CC1=CCC1C2CCC2(C)C(C(=O)CBr)CCC12 (centres unmarked) [compound 2],IC50,"α1β3γ2L GABAAR [1]; Decay inhibition (IC50), potency for reducing GABA current weighted decay time constant, 30 μM GABA",880 nM
same,IC50,α1β3γ2L GABAAR [1]; [5],875 nM
same,IC50,α1β3γ2L GABAAR [1]; [6],2700 nM
same,IC50,α1β3γ2L GABAAR [1]; [9],2650 nM
same,IC50,α1β3γ2L GABAAR [1]; [8],279 nM
same,mean (weighted) decay time (τw) of GABA current,α1β3γ2L GABAAR [2],3.8 ± 0.2 s
